These results are taken from patent US6566550B2, “Substituted aromatic ethers as inhibitors of glycine transport” (Pfizer Inc, priority 2001, dated 2003).

One data set has as its system NMDA receptor. As to conditions: effect blocked by a specific NMDA-site antagonist and a glycine-site antagonist; cited from earlier work.

As for `CN(CCC(Oc1ccc(Oc2cccc3c2CCCC3)cc1)c1ccc(F)cc1)CC(=O)O` (stereo not drawn), the melting point was in the range of 60 to 61 °C.
In turn, `COc1ccc(Oc2ccc(OC(CCN(C)CC(=O)O)c3ccccc3)cc2OC)cc1` (stereo not drawn) came in with a melting point of 60.1 °C.
Still for that read-out and setting: as for `COc1cc(OC(CCN(C)CC(=O)O)c2ccccc2)ccc1Oc1ccccc1` (stereo not drawn), the figure is 77.5 °C; as for `COc1cc(OC(CCN(C)CC(=O)O)c2ccc(F)cc2)ccc1Oc1ccccc1` (stereo not drawn), 139.5 °C.
On to `Cc1ccc(Oc2ccc(OC(CCN(C)CC(=O)O)c3ccc(F)cc3)c(Cl)c2)cc1` (stereo not drawn), for which the melting point stood at 129.3 °C.
Still for that read-out and setting: as for `COc1cccc(Oc2cc(OC(CCN(C)CC(=O)O)c3ccc(F)cc3)ccc2C)c1` (stereo not drawn), the figure is 55 to 57 °C; as for `COc1ccc(Oc2cc(OC(CCN(C)CC(=O)O)c3ccc(F)cc3)ccc2C)cc1` (stereo not drawn), 63 to 65 °C; as for `Cc1ccc(OC(CCN(C)CC(=O)O)c2ccc(F)cc2)cc1Oc1ccc2c(c1)OCO2` (stereo not drawn), 185 to 188 °C.
In the case of `CN(CCC(Oc1ccc(-c2ccccc2)cc1)c1ccc(F)cc1)CC(=O)O` (stereo not drawn) [NFPS], the “post synaptic current driven by the NMDA receptor” value in the data set with NMDA receptor is “increased the post synaptic current driven by the NMDA receptor”.
